Assays:
Colpoda inflata = test: Effect of free porphyrin on non-target organisms of aqueous habitats; type: in vivo; conditions: 1 h irradiation, fluorescent lamp
Protocol: (§1) The effect of free porphyrin, wherein porphyrin means porphyrin C12, dissolved in water on the photosensitivity of potential aqueous non-target organisms was evaluated on Colpoda inflata, Artemia franciscana and Daphnia magna, a protozoan and two crustacean organisms frequently found in aqueous environments. The mortality data were recorded after 1 h irradiation with visible light emitted by a fluorescent lamp.

Artemia franciscana [1] = test: as above; type: in vivo; conditions: 1 h irradiation, fluorescent lamp
Protocol: as §1

Daphnia magna [2] = test: as above; type: in vivo; conditions: 1 h irradiation, fluorescent lamp
Protocol: as §1

Artemia franciscana [3] = test: Dark- and photo-toxic activity of free C12 on breeding site biota; type: in vivo; conditions: nauplii; 1 h incubation; visible light 10 mW/cm^2
Protocol: (§2) The dark- and photo-toxic activity of free C12 (wherein C12 means porphyrin C12) was tested on representative components of mosquito's breeding sites biota, the results are shown in table 6, as minimal photosensitizing dose (μM). […] Sensitivity to phototreatment (visible light, 10 mW/cm^2) was obviously different, as C. inflate trophozoites and even cysts were highly photosensitive, while Artemia franciscana nauplii appeared to be highly resistant.

Daphnia magna [4] = test: as above; type: in vivo; conditions: young individuals; 1 h incubation; visible light 10 mW/cm^2
Protocol: as §2

[5] = system: Chlamydomonas reinhardtii; test: as above; type: in vivo; conditions: vegetative cells; 1 h incubation; visible light 10 mW/cm^2
Protocol: as §2

Anopheles spp = test: Tray larvicide test on field-collected mosquitoes; type: in vivo; conditions: sunlight
Protocol: (§3) Laboratory strains of Anopheles stephensi, M and S (Kisumu), chromosomal forms of An. gambiae, An. arabiensis and Aedes aegypti, as well as field-collected Anopheles spp. and Aedes spp. larvae were used. Laboratory mosquitoes were maintained at 28-30° C., >90% RH and a photoperiod of 12 h. Light intensity ranged between 0.5 mW/cm^2 (fluorescent lamp) and 185 mW/cm^2 (sunlight).
(§4) C12 or C14 porphyrin solutions at 5-100 μM concentrations were pre-incubated at room temperature in the darkness with 15-60 mg of carrier (either Eudragit or ground mouse food or cat food) for 4-12 hours under gentle shaking. After incubation the solutions were filtered, and the loaded carrier was dried at room temperature or in an oven (45° C.).
(§5) One litre capacity, transparent plastic trays containing wells with each 500 ml water and 6-60 mg of the composition of the present invention were prepared. Batches of 60-100 L2, L3 or L4 larvae were introduced into the trays after sunset (or artificial light off). Larval mortality was evaluated the next day starting from 8.00 am, and the time required to reach at least 90% mortality was recorded. Larvae not moving or not showing an escaping response at probing were defined as dead or dying, and counted together (Tables 2 and 3). Pupae occasionally formed throughout the irradiation time were discarded and excluded from the evaluation. An equal number of batches of larvae prepared in the same way were kept in continuous darkness and mortality was evaluated similarly, to assess toxicity in the dark.
(§6) Each result derives from an independent, representative experiment. Light source: sunlight in all cases, intensity range: 4-185 mW/cm^2

[6] = system: Anopheles spp + Aedes spp; test: Tray larvicide test on field-collected mosquitoes; type: in vivo; conditions: carrier Eudragit; 30 mg per tray; loading concentration 50 μM; sunlight
Protocol: as §3, §4, §5, §6

An. gambiae (M) = test: Laboratory-scale tray larvicide test; type: in vivo; conditions: sun
Protocol: as §3, §4, §5
(§7) Light intensity range: 0.5-185 mW/cm^2.

An. arabiensis = test: Laboratory-scale tray larvicide test; type: in vivo; conditions: sun
Protocol: as §3, §4, §5, §7

[7] = system: Anopheles gambiae Kisumu strain (S); test: Laboratory-scale tray larvicide test; type: in vivo; conditions: sun
Protocol: as §3, §4, §5, §7

An. stephensi = test: Laboratory-scale tray larvicide test; type: in vivo; conditions: carrier mouse food; 6 mg per tray; loading concentration 0.64 μM; fluorescent lamp
Protocol: as §3, §4, §5, §7

[8] = C12 photo-bleaching in water; type: physicochemical; conditions: free porphyrin in water; 1 hour irradiation, visible light 150 mW/cm^2
Protocol: Moreover, with the aim to determine the level of degradation of the free porphyrin in the water after exposure to sunlight, the rate of C12 photo-bleaching was followed spectrophotometrically by measuring the porphyrin absorption spectrum in the 350-700 nm range upon exposure to visible light at a fluence rate of 150 mW/cm^2. After 1 hour irradiation the porphyrin concentration decreased up to 50%.

Tetrahymena thermophila = conditions: in vivo
Protocol: as §2

Culex sp. = conditions: cited from earlier work
[9] = carrier Eudragit, 30 mg per tray, loading concentration 25 μM
[10] = carrier cat food, 30 mg per tray, loading concentration 50 μM
[11] = carrier Eudragit, 15 mg per tray, loading concentration 25 μM
[12] = carrier Eudragit, 30 mg per tray, loading concentration 50 μM

With `CCCCCCCCCCCC[n+]1ccc(-c2c3nc(c(-c4cc[n+](C)cc4)c4ccc([nH]4)c(-c4cc[n+](C)cc4)c4nc(c(-c5cc[n+](C)cc5)c5ccc2[nH]5)C=C4)C=C3)cc1` [C12, meso-tri(N-methyl-pyridyl), mono(N-dodecyl-pyridyl)porphine] the LD-50 (Colpoda inflata; cysts) was over 1.0 µM, the “Mortality (%)” value (Colpoda inflata; cysts, porphyrin dose 1.0 μM) was 20% and the LD-50 (Colpoda inflata; trophozoites) was 1.0 µM. For the same molecule, the “Mortality (%)” value (Colpoda inflata; trophozoites, porphyrin dose 0.6 μM) was 40%, the LD-50 (Artemia franciscana [1]) was over 10.0 µM and the “Mortality (%)” value (Artemia franciscana [1]; porphyrin dose 6.0 μM) was 20%. The LD-50 (Daphnia magna [2]) was 0.3 µM, the “Mortality (%)” value (Daphnia magna [2]; porphyrin dose 0.3 μM) was 50% and the minimal photosensitizing dose (Artemia franciscana [3]) was over 10.0 µM. The minimal photosensitizing dose (Daphnia magna [4]) was 0.3 µM, the minimal photosensitizing dose [5] was 0.2 µM and the “Time to reach ≧90% mortality” value (Anopheles spp; carrier Eudragit, 15 mg per tray, loading concentration 15 μM) was 3 h. The “Time to reach ≧90% mortality” value (Anopheles spp; [9]) was 0.5 h, the “Time to reach ≧90% mortality” value (Anopheles spp; [10]) was 3 h and the “Time to reach ≧90% mortality” value [6] was 0.5 h. The “Time to reach ≧90% mortality” value (An. gambiae (M); [11]) was 0.5 h, the “Time to reach ≧90% mortality” value (An. gambiae (M); [10]) was 3 h and the “Time to reach ≧90% mortality” value (An. arabiensis; carrier Eudragit, 15 mg per tray, loading concentration 5 μM) was 3 h. The “Time to reach ≧90% mortality” value (An. arabiensis; [12]) was 0.5 h, the “Time to reach ≧90% mortality” value (An. arabiensis; [10]) was 3 h and the “Time to reach ≧90% mortality” value [7, 11] was 0.5 h. The “Time to reach ≧90% mortality” value ([7]; carrier Eudragit, 15 mg per tray, loading concentration 50 μM) was 0.5 h, the “Time to reach ≧90% mortality” value [7, 9] was 0.5 h and the “Time to reach ≧90% mortality” value [7, 12] was 0.5 h. The “Time to reach ≧90% mortality” value ([7]; carrier Eudragit, 60 mg per tray, loading concentration 50 μM) was 0.5 h, the “Time to reach ≧90% mortality” value ([7]; carrier cat food, 30 mg per tray, loading concentration 25 μM) was 8 h and the “Time to reach ≧90% mortality” value [7, 10] was 0.5 h. For the same molecule, the “Time to reach ≧90% mortality” value ([7]; carrier cat food, 30 mg per tray, loading concentration 100 μM) was 0.5 h, the “Time to reach ≧90% mortality” value ([7]; carrier cat food, 60 mg per tray, loading concentration 100 μM) was 0.5 h and the “Time to reach ≧90% mortality” value (An. stephensi) was 6 h. For the same molecule, the “decrease of porphyrin concentration (photo-bleaching)” value [8] was “up to 50%” and the minimal photosensitizing dose (Tetrahymena thermophila) was 3.0 µM.

In the case of `CC1=C(CCC(=O)O)c2cc3[nH]c(cc4nc(cc5[nH]c(cc1n2)c(C)c5C(C)O)C(C)=C4C(C)O)c(C)c3CCC(=O)O` (stereo not shown) [hematoporphyrin], the mortality (Culex sp.; semi-field, 10^−5 M, after 3 days under natural sunlight) is listed as 100%.

For chlorophyllin, the LD50 (Culex sp.; laboratory, added to larval breeding water, after 3 h exposure to light intensity 146.66 W/m^2) is given as 6.88 g/L.

— patent US20130296370A1, “COMPOSITION COMPRISING A PHOTOACTIVATABLE LARVICIDE” (UNIVERSITA DEGLI STUDI DI PADOVA, priority 2010, published 2013)
